This note sets out measurements from patent publication US20090137527A1, “Compositions and methods for modulating immune function” (Resolvyx Pharmaceuticals, Inc., priority 2007, published 2009).

The subject of this test is CD3-stimulated mouse splenocytes. Kind of test: Ex vivo anti-CD3 stimulated cytokine production of mouse spleen cells after in vivo dosing. The settings on record: for inhibition at 0.03 mg/kg: Mus musculus, Splenocyte, iv, single i.v. 0.03 mg/kg, 30 min before harvest, vs vehicle. The procedure: BALB/c female mice (n=5), 6-8 weeks old, were given either i.v. injection of Compound X or vehicle once a day for 5 days or a single i.v. injection of Compound X or vehicle. Thirty minutes after the last injection, spleens were removed under sterile conditions, and a single cell suspension was made by pressing through a nylon strainer (BD Falcon Cat# 352340). Cells were spun at 1500 rpm for 10 minutes, and the liquid was aspirated. RBC was lysed by adding 3 mL of ACK solution (Lonza Cat# 10-458E) for 5 minutes. The tube was filled with RPMI media and spun. Cells were resuspended in RPMI/10% FCS. To plates pre-coated with anti-CD3 (per the procedure described below) were added 4×10^5 cells per well. Supernatants were harvested after 18 hours of culture. Cytokine levels were measured by Bioplex (Biorad), according to manufacturer's instructions.
For CD3 stimulation, anti-mouse CD3 mAb (BD Pharmingen clone 145-2C11) was used at 0.2 μg/mL in PBS to coat flat bottom 96-well plate at 4° C. overnight. Plates were rinsed twice with PBS before use.
To measure this effect, mice were given daily i.v. injections of 0.3 mg/kg of Compound X for five days. Spleen cells were then harvested and stimulated with anti-CD3 antibody in vitro overnight.
Mice were given a single i.v. injection of 0.03 mg/kg Compound X 30 minutes before spleen cells were harvested. T cells were isolated by magnetic beads, and the purity of T cells was >95% as measured by flow cytometry. Spleen cells or purified T cells were stimulated with 0.2 μg/mL anti-CD3 overnight, and cytokine levels were measured by Bioplex.
The ability of in vivo treatment with Compound X to inhibit anti-CD3 stimulated cytokine production was measured by treating mice (n=5) with a single i.v. injection of 0.03 mg/kg of Compound X thirty minutes before spleens were harvested. Spleen cells were stimulated with anti-CD3 mAb overnight, and cytokine levels were measured by Bioplex. The resulting percent inhibition of cytokine production by total spleen cells as compared with vehicle treated animals is shown in Table 2. These studies indicate that Compound X, when dosed to naïve animals, inhibited ex vivo CD3-stimulated cytokine production in splenocytes by approximately 35-60%.

The structures appear in SMILES notation. Where two headings read alike, the source gives them in different places.

On to `CC[C@@H](O)/C=C/C=C\C[C@@H](O)/C=C/C=C/C=C\[C@@H](O)CCCC(=O)O` [Compound X], for which the inhibition at 0.03 mg/kg by setting is: (anti-CD3 overnight, read-out: % Inhibition of IL-6 production by total spleen cells) 55.2%; (anti-CD3 overnight, read-out: % Inhibition of IL-13 production by total spleen cells) 68.3%; (anti-CD3 overnight, read-out: % Inhibition of INFγ production by total spleen cells) 78.5%; (anti-CD3 overnight, read-out: % Inhibition of Il-2 production by total spleen cells) 62.6%; (anti-CD3 overnight, read-out: % Inhibition of Il-4 production by total spleen cells) 64.9%; (anti-CD3 overnight, read-out: % Inhibition of MIP1α production by total spleen cells) 42.7%. Further, the inhibition at 0.03 mg/kg worked out at 46.1% (anti-CD3 overnight, read-out: % Inhibition of MIP1β production by total spleen cells); 37.2% (anti-CD3 overnight, read-out: % Inhibition of RANTES production by total spleen cells); 50.7% (anti-CD3 overnight, read-out: % Inhibition of TNFα production by total spleen cells). Further, where the note is “daily i.v. 0.3 mg/kg for five days, anti-CD3 overnight”, the “cytokine release of CD3-stimulated mouse splenocytes” value is “inhibits”. In addition, the “inhibition of ex vivo CD3-stimulated cytokine production in splenocytes” value (dosed to naïve animals, summary of studies) was 35-60%. For the same compound, the “CD3-induced cytokine release, spleen cells or purified T cells” value (single i.v. 0.03 mg/kg 30 minutes before harvest, 0.2 μg/mL anti-CD3 overnight) is “reduction”.
